The results in this text go back to PubChem BioAssay (NCI).

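Briefly, cells in 96-well plates were exposed to five compound concentrations for 48 h, and endpoints were estimated by linear interpolation. Abbreviation: GI50, concentration required for 50% inhibition of growth. Definition used: TGI = concentration required for complete inhibition of growth.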

One assay deals with SK-MEL-2 melanoma. Kind of assay: NCI tumour cell line growth inhibition, 48 h.
Turning to `CC(C)N(C(=O)C12C3C4C1(I)C1C2C3(I)C41C(=O)N(C(C)C)C(C)C)C(C)C` (centres undefined), the TGI was more than 100 µM.
In the case of `COc1cc2c3c(n(CCCOC(=O)C(F)(F)F)c(=O)c2cc1OC)-c1cc2c(cc1C3=O)OCO2`, the GI50 was 7.3 µM and the TGI was more than 100 µM.
In the same order, the values of `N=C(N)c1ccc2nc(-c3cc(CC(=O)N[C@@H](CC(=O)O)C(=O)O)cc(-c4cc(S(N)(=O)=O)ccc4O)c3O)[nH]c2c1` are more than 100 µM and more than 100 µM.
Turning to `O[C@H](c1cc(C(F)(F)F)nc2c(C(F)(F)F)cccc12)[C@@H]1CCCCN1`, the GI50 is 3.26 µM and the TGI is 11.9 µM.
Take `CCCOc1ccc2sc(NC(=O)OC)nc2c1`: the GI50 is 2.05 µM and the TGI is more than 100 µM.
The molecule `O=C(O)c1ccc(OCc2ccccc2)c(Cl)c1` yielded a TGI of more than 100 µM.
Regarding `OCCCNc1nccc(-c2c(-c3ccc(F)cc3)nn3cc(C(F)(F)F)ccc23)n1`, the GI50 was more than 23.1 µM and the TGI was more than 25 µM.
For `COc1cc(C=O)c(-c2cc(OC)c(OC)cc2C=O)cc1OC`, the TGI is more than 100 µM.
As to `O=S(=O)(Nc1ccc(F)cc1F)c1ccc(-c2cnc(C3CC3)o2)cc1`, the GI50 was 0.737 µM and the TGI turned out to be 34.6 µM.
The like results for `O=C(CSC1CCc2ccccc21)N/N=C/c1ccccc1O` (centres undefined) were, in that order, 5.26 µM and 24.6 µM.
In turn, `N#CC(C(=O)C(=O)Nc1ccc(Cl)cc1)c1ccccc1` (centres undefined) gave a TGI of more than 100 µM.
As to `COc1cc(C(=O)N2CCN(c3ncccn3)CC2)c(N)cc1OCc1ccccc1`, the GI50 is more than 100 µM and the TGI is more than 100 µM.
Consider `COC(=O)/C=C1\CCC(C)O1` (centres undefined), for which the TGI is more than 100 µM.
Still for that read-out and setting: the same measure for `C=C1C(=O)OC2CC(C)C3(O)CCC(=O)C3(C)CC12` (centres undefined): 71.5 µM.

The test system of the next assay is HT29 colon. Kind of assay: NCI tumour cell line growth inhibition, 48 h.
For the molecule `CC(C)N(C(=O)C12C3C4C1(I)C1C2C3(I)C41C(=O)N(C(C)C)C(C)C)C(C)C` (centres undefined), the TGI was more than 100 µM.
On the same count and under the same terms, for `COc1cc2c3c(n(CCCOC(=O)C(F)(F)F)c(=O)c2cc1OC)-c1cc2c(cc1C3=O)OCO2` the value was more than 35.1 µM.
For the molecule `N=C(N)c1ccc2nc(-c3cc(CC(=O)N[C@@H](CC(=O)O)C(=O)O)cc(-c4cc(S(N)(=O)=O)ccc4O)c3O)[nH]c2c1`, the GI50 is more than 100 µM and the TGI is more than 100 µM.
As to `O[C@H](c1cc(C(F)(F)F)nc2c(C(F)(F)F)cccc12)[C@@H]1CCCCN1`, the GI50 is 2.49 µM and the TGI was 5.98 µM.
The like results for `CCCOc1ccc2sc(NC(=O)OC)nc2c1` were, in that order, 0.465 µM and more than 100 µM.
The molecule `O=C(O)c1ccc(OCc2ccccc2)c(Cl)c1` displayed a TGI of more than 100 µM.
As to `OCCCNc1nccc(-c2c(-c3ccc(F)cc3)nn3cc(C(F)(F)F)ccc23)n1`, the GI50 is 7.73 µM and the TGI was more than 25 µM.
`COc1cc(C=O)c(-c2cc(OC)c(OC)cc2C=O)cc1OC` came in with a TGI of more than 100 µM.
For the molecule `O=S(=O)(Nc1ccc(F)cc1F)c1ccc(-c2cnc(C3CC3)o2)cc1`, the GI50 is 0.381 µM and the TGI came out at 15.2 µM.
The like results for `O=C(CSC1CCc2ccccc21)N/N=C/c1ccccc1O` (centres undefined) were, in that order, 18.3 µM and 52.6 µM.
Regarding `N#CC(C(=O)C(=O)Nc1ccc(Cl)cc1)c1ccccc1` (centres undefined), the TGI is more than 100 µM.
As to `COc1cc(C(=O)N2CCN(c3ncccn3)CC2)c(N)cc1OCc1ccccc1`, the GI50 was more than 100 µM and the TGI was more than 100 µM.
On to `COC(=O)/C=C1\CCC(C)O1` (centres undefined), for which the TGI was more than 100 µM.
The same measure, in the same setting: for `C=C1C(=O)OC2CC(C)C3(O)CCC(=O)C3(C)CC12` (centres undefined) the value was 43.4 µM.

The next assay has as its system OVCAR-4 ovarian. Kind of assay: NCI tumour cell line growth inhibition, 48 h.
For `CC(C)N(C(=O)C12C3C4C1(I)C1C2C3(I)C41C(=O)N(C(C)C)C(C)C)C(C)C` (centres undefined), the TGI is more than 100 µM.
With `COc1cc2c3c(n(CCCOC(=O)C(F)(F)F)c(=O)c2cc1OC)-c1cc2c(cc1C3=O)OCO2`, the GI50 was 0.208 µM and the TGI was more than 100 µM.
On to `N=C(N)c1ccc2nc(-c3cc(CC(=O)N[C@@H](CC(=O)O)C(=O)O)cc(-c4cc(S(N)(=O)=O)ccc4O)c3O)[nH]c2c1`, for which the GI50 was more than 100 µM and the TGI is more than 100 µM.
Consider `O[C@H](c1cc(C(F)(F)F)nc2c(C(F)(F)F)cccc12)[C@@H]1CCCCN1`, for which the GI50 was 4.45 µM and the TGI was found to be 15 µM.
As for `CCCOc1ccc2sc(NC(=O)OC)nc2c1`, the GI50 is more than 100 µM and the TGI was more than 100 µM.
For the molecule `O=C(O)c1ccc(OCc2ccccc2)c(Cl)c1`, the TGI was more than 100 µM.
With `OCCCNc1nccc(-c2c(-c3ccc(F)cc3)nn3cc(C(F)(F)F)ccc23)n1`, the GI50 is 10.8 µM and the TGI was more than 25 µM.
Molecule `COc1cc(C=O)c(-c2cc(OC)c(OC)cc2C=O)cc1OC` displayed a TGI of more than 100 µM.
`O=S(=O)(Nc1ccc(F)cc1F)c1ccc(-c2cnc(C3CC3)o2)cc1`: the GI50 was 3.13 µM and the TGI is more than 100 µM.
Turning to `O=C(CSC1CCc2ccccc21)N/N=C/c1ccccc1O` (centres undefined), the GI50 was 1.55 µM and the TGI was 92.5 µM.
`N#CC(C(=O)C(=O)Nc1ccc(Cl)cc1)c1ccccc1` (centres undefined): the TGI is more than 100 µM.
Regarding `COc1cc(C(=O)N2CCN(c3ncccn3)CC2)c(N)cc1OCc1ccccc1`, the GI50 was more than 100 µM and the TGI is more than 100 µM.
As for `COC(=O)/C=C1\CCC(C)O1` (centres undefined), the TGI is more than 100 µM.
On the same count and under the same terms, the same measure for `C=C1C(=O)OC2CC(C)C3(O)CCC(=O)C3(C)CC12` (centres undefined): 40.2 µM.

The subject of the next assay is HCT-15 colon. Kind of assay: NCI tumour cell line growth inhibition, 48 h.
`CC(C)N(C(=O)C12C3C4C1(I)C1C2C3(I)C41C(=O)N(C(C)C)C(C)C)C(C)C` (centres undefined) gave a TGI of more than 59.8 µM.
For the molecule `COc1cc2c3c(n(CCCOC(=O)C(F)(F)F)c(=O)c2cc1OC)-c1cc2c(cc1C3=O)OCO2`, the GI50 was 103 nM and the TGI is more than 100 µM.
The like results for `N=C(N)c1ccc2nc(-c3cc(CC(=O)N[C@@H](CC(=O)O)C(=O)O)cc(-c4cc(S(N)(=O)=O)ccc4O)c3O)[nH]c2c1` were, in that order, more than 100000 nM and more than 100 µM.
Take `O[C@H](c1cc(C(F)(F)F)nc2c(C(F)(F)F)cccc12)[C@@H]1CCCCN1`: the GI50 is 11900 nM and the TGI was 27 µM.
In the same order, the values of `CCCOc1ccc2sc(NC(=O)OC)nc2c1` are 611 nM and more than 100 µM.
In the case of `O=C(O)c1ccc(OCc2ccccc2)c(Cl)c1`, the TGI was more than 100 µM.
On to `OCCCNc1nccc(-c2c(-c3ccc(F)cc3)nn3cc(C(F)(F)F)ccc23)n1`, for which the GI50 was 8100 nM and the TGI was more than 25 µM.
In turn, `COc1cc(C=O)c(-c2cc(OC)c(OC)cc2C=O)cc1OC` came in with a TGI of more than 100 µM.
Consider `O=S(=O)(Nc1ccc(F)cc1F)c1ccc(-c2cnc(C3CC3)o2)cc1`, for which the GI50 is 370 nM and the TGI is 46.7 µM.
The like results for `O=C(CSC1CCc2ccccc21)N/N=C/c1ccccc1O` (centres undefined) were, in that order, 2270 nM and more than 100 µM.
The molecule `N#CC(C(=O)C(=O)Nc1ccc(Cl)cc1)c1ccccc1` (centres undefined) showed a TGI of more than 100 µM.
Turning to `COc1cc(C(=O)N2CCN(c3ncccn3)CC2)c(N)cc1OCc1ccccc1`, the GI50 is more than 100000 nM and the TGI is more than 100 µM.
In the case of `COC(=O)/C=C1\CCC(C)O1` (centres undefined), the TGI was more than 100 µM.
For `C=C1C(=O)OC2CC(C)C3(O)CCC(=O)C3(C)CC12` (centres undefined), the TGI is 28.1 µM.

The next assay has as its system SNB-19 CNS. Kind of assay: NCI tumour cell line growth inhibition, 48 h.
`CC(C)N(C(=O)C12C3C4C1(I)C1C2C3(I)C41C(=O)N(C(C)C)C(C)C)C(C)C` (centres undefined) returned a TGI of more than 100 µM.
As for `COc1cc2c3c(n(CCCOC(=O)C(F)(F)F)c(=O)c2cc1OC)-c1cc2c(cc1C3=O)OCO2`, the TGI was more than 100 µM.
As for `N=C(N)c1ccc2nc(-c3cc(CC(=O)N[C@@H](CC(=O)O)C(=O)O)cc(-c4cc(S(N)(=O)=O)ccc4O)c3O)[nH]c2c1`, the GI50 is more than 100 µM and the TGI is more than 100 µM.
As to `O[C@H](c1cc(C(F)(F)F)nc2c(C(F)(F)F)cccc12)[C@@H]1CCCCN1`, the GI50 is 7.19 µM and the TGI was 20.9 µM.
The like results for `CCCOc1ccc2sc(NC(=O)OC)nc2c1` were, in that order, 10.2 µM and more than 100 µM.
Turning to `O=C(O)c1ccc(OCc2ccccc2)c(Cl)c1`, the TGI was more than 100 µM.
Consider `OCCCNc1nccc(-c2c(-c3ccc(F)cc3)nn3cc(C(F)(F)F)ccc23)n1`, for which the GI50 is more than 25 µM and the TGI was more than 25 µM.
The molecule `COc1cc(C=O)c(-c2cc(OC)c(OC)cc2C=O)cc1OC` yielded a TGI of more than 100 µM.
Regarding `O=S(=O)(Nc1ccc(F)cc1F)c1ccc(-c2cnc(C3CC3)o2)cc1`, the GI50 was 0.638 µM and the TGI was more than 100 µM.
In the same order, the values of `O=C(CSC1CCc2ccccc21)N/N=C/c1ccccc1O` (centres undefined) are 6.11 µM and more than 100 µM.
`N#CC(C(=O)C(=O)Nc1ccc(Cl)cc1)c1ccccc1` (centres undefined) returned a TGI of more than 100 µM.
For `COc1cc(C(=O)N2CCN(c3ncccn3)CC2)c(N)cc1OCc1ccccc1`, the GI50 was more than 100 µM and the TGI was more than 100 µM.
Consider `COC(=O)/C=C1\CCC(C)O1` (centres undefined), for which the TGI is more than 100 µM.
The molecule `C=C1C(=O)OC2CC(C)C3(O)CCC(=O)C3(C)CC12` (centres undefined) came in with a TGI of 61.4 µM.

For a further assay, the system named is MALME-3M melanoma. Kind of assay: NCI tumour cell line growth inhibition, 48 h.
As for `CC(C)N(C(=O)C12C3C4C1(I)C1C2C3(I)C41C(=O)N(C(C)C)C(C)C)C(C)C` (centres undefined), the TGI was more than 100 µM.
